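The compound was tested at five concentrations on cells cultured in 96-well plates, with a 48-hour exposure period. TGI marks complete inhibition of growth.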

Among the test systems are SR leukemia; MDA-N; MDA-MB-231 breast; MOLT-4 leukemia; NCI-H522 lung; U251 CNS; NCI-H226 lung; RXF 393 renal; NCI/ADR-RES ovarian; COLO 205 colon; SN12C renal.
What all share (test): NCI-60 cell line screen, 48 h

In the case of `CC1=CC2C3(C)C(C)(C(C)=CP3(=O)c3c(C(C)C)cc(C(C)C)cc3C(C)C)C1P2(=O)c1c(C(C)C)cc(C(C)C)cc1C(C)C` (stereo unspecified), the TGI was found to be 3.92 µM with SR leukemia; 5.62 µM with MDA-N; 3.87 µM in the experiment on MDA-MB-231 breast; 5.78 µM in the experiment with MOLT-4 leukemia; 8.64 µM in the experiment on NCI-H522 lung; 6.59 µM in the experiment with U251 CNS. For the same compound, the TGI was 6.08 µM in the experiment with NCI-H226 lung; 15.8 µM with RXF 393 renal; 9.89 µM with NCI/ADR-RES ovarian; 3.3 µM in the experiment with COLO 205 colon; 7.9 µM in the experiment on SN12C renal.

As for `O=c1oc2ccc3ccccc3c2cc1-c1cn2ccsc2n1`, the TGI in the experiment on SR leukemia was 46.9 µM; with MDA-N it was 46.3 µM; with MDA-MB-231 breast, 57.4 µM; in the experiment on MOLT-4 leukemia, 14.9 µM; with NCI-H522 lung, 36.8 µM; with U251 CNS it was more than 100 µM. Also, the TGI is 37.4 µM with RXF 393 renal, 96.2 µM in the experiment with NCI/ADR-RES ovarian, 33.3 µM in the experiment with COLO 205 colon and 83.8 µM with SN12C renal.

On to `COc1ccc(C2Oc3ccc(Cl)cc3C=C2[N+](=O)[O-])cc1` (stereo unspecified), for which the TGI in the experiment on SR leukemia, in the experiment with MDA-N, in the experiment with MDA-MB-231 breast, with MOLT-4 leukemia, in the experiment with NCI-H522 lung and in the experiment with U251 CNS was more than 100 µM throughout. The TGI in the experiment on RXF 393 renal, in the experiment on NCI/ADR-RES ovarian, in the experiment on COLO 205 colon and in the experiment with SN12C renal was more than 100 µM each time.

For the compound `Cc1ccccc1-c1nc2c(N)nc(N)nc2nc1N`, the TGI with SR leukemia, in the experiment on MDA-N, in the experiment with MDA-MB-231 breast, in the experiment on MOLT-4 leukemia, in the experiment with NCI-H522 lung and in the experiment with U251 CNS was more than 100 µM in each case. In addition, the TGI in the experiment with NCI/ADR-RES ovarian, in the experiment on COLO 205 colon and with SN12C renal was more than 100 µM each time.

On to `O=C(NCc1ccccc1)c1cc2ccccc2oc1=Nc1cccc(C(F)(F)F)c1`, for which the TGI with SR leukemia is 66.1 µM; with MDA-N, more than 100 µM; in the experiment on MDA-MB-231 breast it was more than 100 µM; in the experiment with MOLT-4 leukemia it was 92.5 µM; with NCI-H522 lung, more than 100 µM; in the experiment on U251 CNS, more than 100 µM. The TGI is 97.7 µM in the experiment on NCI-H226 lung; more than 100 µM in the experiment on RXF 393 renal; more than 100 µM in the experiment with NCI/ADR-RES ovarian; 90.2 µM in the experiment with COLO 205 colon; 62.7 µM in the experiment with SN12C renal.

`Cc1nc2ccc(Cl)cc2c(-n2ccnc2)c1CCn1ccnc1`: the TGI in the experiment on SR leukemia was 20.5 µM; with MDA-N it was 84.7 µM; in the experiment with MDA-MB-231 breast, 48.9 µM; in the experiment on NCI-H522 lung it was 70.9 µM; in the experiment with U251 CNS it was more than 100 µM; in the experiment with NCI-H226 lung, 53.2 µM. Also, the TGI with RXF 393 renal is 53.1 µM; in the experiment with NCI/ADR-RES ovarian, 6.03 µM; in the experiment on COLO 205 colon, 41.5 µM; with SN12C renal, more than 100 µM.

`O=C(O)c1nc2ccc(C(F)(F)F)cc2[nH]c1=O`: the TGI with SR leukemia, in the experiment with MDA-N, with MDA-MB-231 breast, in the experiment with MOLT-4 leukemia, in the experiment on NCI-H522 lung and in the experiment on U251 CNS was more than 100 µM throughout. Also, the TGI in the experiment with NCI-H226 lung, in the experiment on RXF 393 renal, in the experiment with NCI/ADR-RES ovarian, with COLO 205 colon and with SN12C renal was more than 100 µM in each case.

Take `c1c[nH]c(-c2cccc3nsnc23)c1`: the TGI with SR leukemia, in the experiment on MDA-N, with MDA-MB-231 breast, with MOLT-4 leukemia, in the experiment on NCI-H522 lung and in the experiment with U251 CNS was more than 100 µM throughout. The TGI with NCI-H226 lung, with RXF 393 renal, in the experiment with NCI/ADR-RES ovarian, with COLO 205 colon and in the experiment on SN12C renal was more than 100 µM in each case.

As for `CN(CCN1CCCC1)C1CCc2cc(Cl)c(Cl)cc2C1` (stereo unspecified), the TGI in the experiment on SR leukemia was 74.5 µM; in the experiment on MDA-N it was 26.2 µM; with MDA-MB-231 breast, 34.7 µM; with MOLT-4 leukemia, more than 100 µM; in the experiment with NCI-H522 lung, 33 µM; with U251 CNS, 32.6 µM. Besides, the TGI in the experiment with NCI-H226 lung stood at 34.8 µM; with NCI/ADR-RES ovarian, 28 µM; with COLO 205 colon, 17.2 µM; in the experiment with SN12C renal, 30.9 µM.

As for `S=C(Cc1ccc2c(c1)Sc1ccccc1O2)N1CCOCC1`, the TGI in the experiment on SR leukemia, with MDA-N, with MDA-MB-231 breast, in the experiment with MOLT-4 leukemia, in the experiment with U251 CNS and in the experiment with NCI-H226 lung was more than 100 µM each time. Further, the TGI in the experiment on RXF 393 renal, in the experiment on NCI/ADR-RES ovarian, in the experiment on COLO 205 colon and with SN12C renal was more than 100 µM throughout.

For `CC(C)NC(=O)OCc1c(COC(=O)NC(C)C)n(C)c2c1ccc1sccc12`, the TGI in the experiment on SR leukemia was more than 64.6 µM; in the experiment with MDA-N, 42.8 µM; in the experiment on MDA-MB-231 breast, 52 µM; in the experiment on MOLT-4 leukemia, more than 86.1 µM; with NCI-H522 lung, 15.5 µM; in the experiment on U251 CNS, more than 60.8 µM. Also, the TGI in the experiment on NCI-H226 lung was more than 30.1 µM; in the experiment on RXF 393 renal, 39.9 µM; with NCI/ADR-RES ovarian it was more than 55.7 µM; with COLO 205 colon it was 37.9 µM; with SN12C renal it was 76.2 µM.

As to `O=C(COc1ccc(OCC(=O)N/N=C/c2ccc(-c3ccc(Cl)cc3Cl)o2)c(Cl)c1)N/N=C/c1ccc(-c2ccc(Cl)cc2Cl)o1`, the TGI was 8.25 µM with SR leukemia; more than 100 µM in the experiment on MDA-N; more than 100 µM with MDA-MB-231 breast; 5.5 µM in the experiment on MOLT-4 leukemia; more than 100 µM with NCI-H522 lung; more than 100 µM with U251 CNS. In addition, the TGI in the experiment with NCI-H226 lung is more than 100 µM; with RXF 393 renal it was 81.2 µM; in the experiment with NCI/ADR-RES ovarian, more than 100 µM; in the experiment on COLO 205 colon, more than 100 µM; in the experiment with SN12C renal it was more than 100 µM.

On to `CN(O)C(=O)/C=C/c1ccc(OCc2cccc(Cl)c2)cc1`, for which the TGI in the experiment with SR leukemia is 38.4 µM; in the experiment on MDA-N, more than 100 µM; in the experiment with MDA-MB-231 breast, more than 100 µM; in the experiment on MOLT-4 leukemia, 39.6 µM; in the experiment on NCI-H522 lung, more than 100 µM; with U251 CNS, more than 100 µM. Further, the TGI with NCI-H226 lung was 73.9 µM; in the experiment with RXF 393 renal, more than 100 µM; in the experiment on NCI/ADR-RES ovarian, 46.7 µM; with COLO 205 colon it was more than 100 µM; in the experiment on SN12C renal, 55.9 µM.

The record behind these values is PubChem BioAssay (NCI).
